1 compound from article PMC6178282, “Comparative cell biological study of in vitro antitumor and antimetastatic activity on melanoma cells of GnRH-III-containing conjugates modified with short-chain fatty acids” (Beilstein Journal of Organic Chemistry, 2018) can be followed below.

This assay deals with A2058 melanoma cells. As to the kind of experiment: Morphometry analysis by HoloMonitor M4 holographic microscopy. The assay is classed as cell-based, human. The note with it: fold change during treatment normalized to control cells, average ± SD, 50 cells/group, 180 consecutive frames. How it is done:
Holographic microscopic measurements were also performed to visualize the morphological changes induced by the conjugates and Dau. This novel technique provided several morphological parameters (e.g., surface area, optical thickness, eccentricity etc.) that allowed understanding of the results of impedance-based adhesion measurement. Holographic images were taken before and after the 3-hour treatment of A2058 cells with the compounds. The change in the morphological parameters shown in Table S1 in Supporting Information File 2 was calculated from a fold change during 3 h long treatment and this value was normalized to that of the control cells. The adhesion inducer effects of Dau and GnRH-III(Dau=Aoa) detected by the impedimetric assay were reflected in the morphometry analysis.
The experimental set up we used for the morphometry analysis can be also found in [6]. The HolomonitorTM M4 microscope (Phase Holographic Imaging AB, Lund, Sweden) was used for imaging and tracking the morphological changes of A2058 cells induced by the conjugates and Dau. This technique is dedicated to analyzing the morphology and movement of adherent cells by recording 3D, holographic phase contrast images and tracking them over a given time period. The principle behind this method is the detection of the phase shift of the probing laser light transmitting or reflecting through a cell sample and comparison to the reference light […]
A2058 cells were seeded (2.5 × 10^5 cells) in a petri dish (diameter: 35 mm) and allowed to adhere for 24 h. After automatic calibration of the background and microscope objective (20×), one field of each sample was focused on by the digital autofocus feature. The cells were then treated with the test compounds at the final concentrations of 10−7–10−5 mol/L, or with an equivalent volume of culture medium, and captured every 30 sec for 2 h.
For the evaluation, ca. 50 cells per time-lapse sequence were identified and selected by the minimum error histogram-based threshold algorithm of the HStudioTM M4 2.7.1 software (Phase Holographic Imaging AB, Lund, Sweden). The morphological changes were automatically analyzed over time by selecting and tracking individual cells.
For the morphometry analysis, different basic and complex morphological parameters were […]
The (i) area (surface area of the image occupied by a cell) and (ii) thickness (average spatial cell thickness) were grouped as basic metrics, while the more complex parameters relating to cell shape were: (iii) the eccentricity (how elongated a cell is comparing to a circle), (iv) the hull convexity (how different the 3D shape of a cell is compared to a perfect convex shape) and (v) the irregularity (how different the circumference of a cell is compared to the circumference of a perfect circle).
Table S1: Morphological changes of A2058 melanoma cells induced by the conjugates Compounds/ Area Thickness Eccentricity Hull convexity Irregularity concentrations [%] [%] [%] [%] [%]
[4Lys(Ac)] -GnRH-III(Dau=Aoa )
[4Lys(Bu)]-GnRH-III(Dau=Aoa)
Area (μm2) – surface area of the image that is occupied by the cell; Thickness (μm) – average thickness of the cell; Eccentricity – how elongated a cell comparing to a circle shape; Hull convexity – how different the 3D shape of a cell from the perfect convex shape; Irregularity – how different the circumference of a cell from the circumference of a perfect circle
Data represent averages and ±SD values calculated for 50 cells/group in 180 consecutive frames.
The presented data were calculated by HoloStudioTM M4 2.5 and analyzed by Origin Pro 2016. The levels of significance are shown as follows: *: p<0.05; **: p<0.01; ***: p<0.001

For `COc1cccc2c1C(=O)c1c(O)c3c(c(O)c1C2=O)C[C@@](O)(C(C)=O)C[C@@H]3O[C@H]1C[C@H](N)[C@H](O)[C@H](C)O1` [daunorubicin], under “10^-5 M”, the Area is given as 99.1 ± 4.1%, the Eccentricity is listed as 104.4 ± 1.84%, the Hull convexity is 101.2 ± 0.29% and the Irregularity worked out at 102.6 ± 2.54%. The same compound yielded a Thickness (10^-5 M) of 104.5 ± 2.12%. For the setting “10^-6 M”, this compound came in with an Eccentricity of 96.6 ± 1.83%, a Hull convexity of 100.1 ± 0.23% and a Thickness of 95.4 ± 1.87%. Under “10^-6 M, listed as Dau”, the Area amounted to 124.1%. Where the note is “10^-7 M”, this compound returned an Area of 94.5 ± 3.72%, an Eccentricity of 95.2 ± 2.25%, a Hull convexity of 103.4 ± 0.29% and an Irregularity of 94.5 ± 2.41%. Besides, where the note is “10^-7 M”, the Thickness turned out to be 101.8 ± 1.95%.
